Literature values in PMC4460250, “Systems Pharmacology Dissecting Holistic Medicine for Treatment of Complex Diseases: An Example Using Cardiocerebrovascular Diseases Treated by TCM” (Evidence-based Complementary and Alternative Medicine : eCAM, 2015).

settings: in vivo; cited from earlier work

Compound	HIA(Human Intestinal Absorption)
C=CC(N)CCC(=O)O (stereo not drawn) [Vigabatrin]	0.58
CC1=C(CC(=O)O)c2cc(F)ccc2/C1=C\c1ccc([S+](C)[O-])cc1 (stereo not drawn) [Sulindac]	0.9
CCOC(=O)[C@H](CCc1ccccc1)N[C@@H](C)C(=O)N1CCC[C@H]1C(=O)O [Enalapril]	0.66
CO[C@H]1C[C@H](O[C@H]2CC[C@]3(C=O)[C@H]4CC[C@]5(C)[C@@H](C6=CC(=O)OC6)CC[C@]5(O)[C@@H]4CC[C@]3(O)C2)O[C@H](C)[C@H]1O [Cymarin]	0.47
CCOc1ccccc1OCCN[C@H](C)Cc1ccc(OC)c(S(N)(=O)=O)c1 [Tamsulosin]	1
Nc1cc(-c2ccncc2)c[nH]c1=O [Amrinone]	0.93
CO/N=C(\C(=O)N[C@@H]1C(=O)N2C(C(=O)O)=C(COC(C)=O)CS[C@H]12)c1csc(N)n1 [Cefotaxime]	0.05
CN1CCCC(n2nc(Cc3ccc(Cl)cc3)c3ccccc3c2=O)CC1 (stereo not drawn) [Azelastine]	1
C[C@]12C[C@H](O)[C@H]3[C@@H](CCC4=CC(=O)CC[C@@]43C)[C@@H]1CC[C@@H]2C(=O)CO [Corticosterone]	1
N[C@@H]1CON=C1O [Cycloserine]	0.73
CC(C)NCC(O)COc1ccc(CCOCC2CC2)cc1 (stereo not drawn) [Betaxolol]	0.9
NC(=O)N1c2ccccc2C=Cc2ccccc21 [Carbamazepine]	1
O=P(O)(O)C(Sc1ccc(Cl)cc1)P(=O)(O)O [Tiludronic_acid]	0.06
Nc1c2c(nc3ccccc13)CCCC2 [Tacrine]	0.95
CNCCCC1c2ccccc2C=Cc2ccccc21 [Protriptyline]	0.95
C[C@@H]1O[C@@H]1P(=O)(O)O [Fosfomycin]	0.31
CCCc1nc2c(C)cc(-c3nc4ccccc4n3C)cc2n1Cc1ccc(-c2ccccc2C(=O)O)cc1 [Telmisartan]	0.9
Cc1ccc(NC(=O)c2ccc(CN3CCN(C)CC3)cc2)cc1Nc1nccc(-c2cccnc2)n1 [Imatinib]	0.98
CNCCc1ccccn1 [Betahistine]	1
CC(=O)O[C@]1(C(C)=O)CC[C@H]2[C@@H]3C=C(Cl)C4=CC(=O)[C@@H]5C[C@@H]5[C@]4(C)[C@H]3CC[C@@]21C [Cyproterone_acetate]	0.98
CNCCCN1c2ccccc2CCc2ccccc21 [Desipramine]	1

Compound	HIA(Human Intestinal Absorption)
CC(C)COCC(CN(Cc1ccccc1)c1ccccc1)N1CCCC1 (stereo not drawn) [Bepridil]	1
Cc1ccc(C)c(OCCCC(C)(C)C(=O)O)c1 [Gemfibrozil]	1
CC(=O)Oc1ccccc1C(=O)O [Aspirin]	0.82
CN1CCC(=C2c3ccccc3CCc3sccc32)CC1 [Pizotyline]	0.8
O=C1c2ccccc2C(=O)C1c1ccccc1 [Phenindione]	1
CC1(C)S[C@@H]2[C@H](NC(=O)[C@H](NC(=O)N3CCN(S(C)(=O)=O)C3=O)c3ccccc3)C(=O)N2[C@H]1C(=O)O [Mezlocillin]	0.01
N[C@@H](C(=O)N[C@@H]1C(=O)N2C(C(=O)O)=C(CSc3c[nH]nn3)CS[C@H]12)c1ccc(O)cc1 [Cefatrizine]	0.76
CC1(C)O[C@@H]2[C@@H](CO[C@@]3(COS(N)(=O)=O)OC(C)(C)O[C@@H]23)O1 [Topiramate]	0.86
CC(=O)N(CC(O)CO)c1c(I)c(C(=O)NCC(O)CO)c(I)c(C(=O)NCC(O)CO)c1I (stereo not drawn) [Iohexol]	0.05
Cc1cnc(NC(=O)C2=C(O)c3ccccc3S(=O)(=O)N2C)s1 [Meloxicam]	0.9
O=C1CN2Cc3c(ccc(Cl)c3Cl)N=C2N1 [Anagrelide]	0.7
c1ccc2[nH]c(-c3cscn3)nc2c1 [Thiabendazole]	0.9
CNS(=O)(=O)Cc1ccc2[nH]cc(CCN(C)C)c2c1 [Sumatriptan]	0.57
[H]/N=C(\N/C(=N/[H])Nc1ccc(Cl)cc1)NC(C)C [Chlorguanide]	0.85
CC[C@H](C)C(=O)O[C@H]1C[C@H](O)C=C2C=C[C@H](C)[C@H](CC[C@@H](O)C[C@@H](O)CC(=O)O)[C@H]21 [Pravastatin]	0.34
Oc1ncnc2[nH]ncc12 [Allopurinol]	0.8
Cc1c(OCC(F)(F)F)ccnc1C[S+]([O-])c1nc2ccccc2[nH]1 (stereo not drawn) [Lansoprazole]	0.85
[H]/N=C(\N/C(=N/[H])NCCCCCCNC(=N)NC(=N)Nc1ccc(Cl)cc1)Nc1ccc(Cl)cc1 [Chlorhexidine]	0.05
O=P(O)(O)C(Cl)(Cl)P(=O)(O)O [Clodronate]	0.03
CC[C@H]1OC(=O)[C@H](C)[C@@H](O[C@H]2C[C@@](C)(OC)[C@@H](O)[C@H](C)O2)[C@H](C)[C@@H](O[C@@H]2O[C@H](C)C[C@H](N(C)C)[C@H]2O)[C@](C)(O)C[C@@H](C)C(=O)[C@H](C)[C@@H](O)[C@]1(C)O [Erythromycin]	0.35
COc1cc(N)c(Cl)cc1C(=O)NC1CCN(CCCOc2ccc(F)cc2)CC1OC (stereo not drawn) [Cisapride]	1

Compound	HIA(Human Intestinal Absorption)
NNc1nncc2ccccc12 [Hydralazine]	1
CCC[C@@H]1C[C@@H](C(=O)N[C@@H]([C@H]2O[C@H](SC)[C@H](O)[C@@H](O)[C@H]2O)[C@@H](C)O)N(C)C1 [Lincomycin]	0.28
CCCC(CCC)C(=O)O [Valproic_acid]	0.98
O=C1NS(=O)(=O)c2ccccc21 [Saccharin]	0.88
CCc1nn(CCCN2CCN(c3cccc(Cl)c3)CC2)c(=O)n1CCOc1ccccc1 [Nefazodone]	1
O=C1CN(/N=C/c2ccc(-c3ccc([N+](=O)[O-])cc3)o2)C(O)=N1 [Dantrolene]	0.8
COc1cc2c(cc1OC)C1CC(=O)C(CC(C)C)CN1CC2 (stereo not drawn) [Tetrabenazine]	1
CC(O)(P(=O)(O)O)P(=O)(O)O [Etidronate]	0.05
CN1C(C(=O)Nc2ccccn2)=C(O)c2sccc2S1(=O)=O [Tenoxicam]	1
CC(O)(CS(=O)(=O)c1ccc(F)cc1)C(=O)Nc1ccc(C#N)c(C(F)(F)F)c1 (stereo not drawn) [Bicalutamide]	0.9
Cc1cn([C@H]2C=C[C@@H](CO)O2)c(=O)[nH]c1=O [Stavudine]	1
CN(C/C=C/C#CC(C)(C)C)Cc1cccc2ccccc12 [Terbinafine]	0.8
COc1ccc(Cl)cc1C(=O)NCCc1ccc(S(=O)(=O)NC(=O)NC2CCCCC2)cc1 [Glyburide]	1
CN(C)C(=N)N=C(N)N [Metformin]	0.53
CN/C(=N/CCSCc1nc[nH]c1C)NC#N [Cimetidine]	0.64
CCC1(c2ccccc2)C(=O)NCNC1=O [Primidone]	0.75
OCCN1CCN(CCC=C2c3ccccc3Sc3ccc(Cl)cc32)CC1 [Clopenthixol]	0.95
Cc1ccsc1C(=CCCN1CCC[C@@H](C(=O)O)C1)c1sccc1C [Tiagabine]	0.9
COc1nc(C)nc(Cl)c1N=C1NCCN1 [Moxonidine]	0.88
Fc1ccc([C@@H]2CCNC[C@H]2COc2ccc3c(c2)OCO3)cc1 [Paroxetine]	1
COCC1=C(C(=O)OC(C)OC(=O)OC(C)C)N2C(=O)[C@@H](NC(=O)/C(=N\OC)c3csc(N)n3)[C@H]2SC1 (stereo partly drawn) [Cefpodoxime_proxetil]	0.5

Compound	HIA(Human Intestinal Absorption)
CN(C)CCC=C1c2ccccc2CCc2ccccc21 [Amitriptyline]	0.95
CO[C@@]1(NC(=O)CSCC#N)C(=O)N2C(C(=O)O)=C(CSc3nnnn3C)CS[C@@H]21 [Cefmetazole]	0.1
CC(=O)S[C@@H]1CC2=CC(=O)CC[C@]2(C)[C@H]2CC[C@@]3(C)[C@@H](CC[C@@]34CCC(=O)O4)[C@H]12 [Spironolactone]	0.73
CC1(C)NC(=O)N(c2ccc([N+](=O)[O-])c(C(F)(F)F)c2)C1=O [Nilutamide]	1
CCOC(=O)C(C)(C)Oc1ccc(Cl)cc1 [Clofibrate]	0.97
Cc1nc(=O)c(C#N)c(NCc2cccnc2)[nH]1 [Pelrinone]	0.98
Nc1nnc(-c2cccc(Cl)c2Cl)c(N)n1 [Lamotrigine]	0.98
N=C(N)N/N=C/c1c(Cl)cccc1Cl [Guanabenz]	0.8
O=C(Oc1ccccc1C(=O)O)c1ccccc1O [Salsalate]	1
CC1=C(C(=O)O)N2C(=O)[C@@H](NC(=O)[C@H](N)C3=CCC=CC3)[C@H]2SC1 [Cephradine]	0.95
CCCC1O[C@@H]2C[C@H]3[C@@H]4CCC5=CC(=O)C=C[C@]5(C)[C@H]4[C@@H](O)C[C@]3(C)[C@]2(C(=O)CO)O1 (stereo partly drawn) [Budesonide]	1
O=C1Cc2cc(CCN3CCN(c4nsc5ccccc45)CC3)c(Cl)cc2N1 [Ziprasidone]	0.6
Nc1nc(=O)[nH]cc1F [Flucytosine]	1
Cc1ccc(S(=O)(=O)NC(=O)NN2CC3CCCC3C2)cc1 (stereo not drawn) [Gliclazide]	0.65
Cn1cc[nH]c1=S [Methimazole]	0.95
Nc1ccc(/N=N/c2ccccc2)c(N)n1 [Phenazopyridine]	0.9
O=C1C(CC[S+]([O-])c2ccccc2)C(=O)N(c2ccccc2)N1c1ccccc1 (stereo not drawn) [Sulfinpyrazone]	1
[H]/N=C(\N/C(=N/[H])Nc1ccc(Cl)cc1)NC(C)C [Proguanil]	0.8
